# Measurements: patent publication US20120138290A1, “METHODS TO STIMULATE BIOGENIC METHANE PRODUCTION FROM HYDROCARBON-BEARING FORMATIONS” (SYNTHETIC GENOMICS, INC., priority 2010, published 2012)
# “And” between values parts separate entries of the source, which are not always exact repeats. Equal entries are not always repeated.
# System: functional microbial subcommunity (inoculum 2L-245 from upflow reactor)
# Test: Stimulation of methane production: batch cultures with additive/stimulant, with or without coal, headspace methane by gas chromatography
# Assay type: cell-based
# Description: The availability of an inoculum of a functional microbial subcommunity capable of producing methane from coal in vitro prompted laboratory experiments where various stimulants were tested for their effect on methane production. […] The experiments were conducted at three different levels of additives (0.5×, 1× and 2×): additives (stimulants) were added in the following three concentrations. […] DMY media: DM media composition in milli-Q water is made as described above with the addition of 0.5 g/L yeast extract. DMSC media: DM media in milli-Q water is made as described above with the addition of 100 g/L sterile, anaerobic, sub-bituminous coal from the San Juan Basin. DMSCY media: DM media in milli-Q water is made as described above with the addition of 100 g/L sterile, anaerobic, sub-bituminous coal from the San Juan Basin and 0.5 g/L yeast extract. The coal used in these experiments originated from the San Juan Basin (BHP Billiton, Tex.). […] Each stimulant was tested in the presence or absence of coal. The experiments were conducted at three different concentrations of additives (0.5× (low), 1× (medium), and 2× (high)) as described above. Each sample type was conducted in 4 replicates. […] Control sample types were media alone, media plus coal, media plus yeast extract and media plus coal and yeast extract. At each time point, headspace measurements were taken using gas chromatography (microGC […], Agilent Technologies, Inc.). […] Each experiment was performed in quadruplicate. Methane at time 0 was assumed to be 0%.
# [1] = DMSCY (coal), 125 μM Na2SO3, week 1
# [2] = DMSCY (coal), 125 μM Na2SO3, week 3
# [3] = DMSCY (coal), 125 μM Na2SO3, week 5
# [4] = DMSCY (coal), 250 μM Na2SO3, week 1
# [5] = DMSCY (coal), 250 μM Na2SO3, week 3
# [6] = DMSCY (coal), 250 μM Na2SO3, week 5
# [7] = DMSCY (coal), 500 μM Na2SO3, week 1
# [8] = DMSCY (coal), 500 μM Na2SO3, week 3
# [9] = DMSCY (coal), 500 μM Na2SO3, week 5
# [10] = DMY (no coal), 125 μM Na2SO3, week 1
# [11] = DMY (no coal), 125 μM Na2SO3, week 3
# [12] = DMY (no coal), 125 μM Na2SO3, week 5
# [13] = DMY (no coal), 250 μM Na2SO3, week 1
# [14] = DMY (no coal), 250 μM Na2SO3, week 3
# [15] = DMY (no coal), 250 μM Na2SO3, week 5
# [16] = DMY (no coal), 500 μM Na2SO3, week 1
# [17] = DMY (no coal), 500 μM Na2SO3, week 3
# [18] = DMY (no coal), 500 μM Na2SO3, week 5
# [19] = DMSCY (coal), 5.0 μM MnCl2, week 3
# [20] = DMSCY (coal), 5.0 μM MnCl2, week 5
# [21] = DMSCY (coal), 10 μM MnCl2, week 1
# [22] = DMSCY (coal), 10 μM MnCl2, week 3
# [23] = DMSCY (coal), 10 μM MnCl2, week 5
# [24] = DMY (no coal), 5.0 μM MnCl2, week 1
# [25] = DMY (no coal), 5.0 μM MnCl2, week 3
# [26] = DMY (no coal), 5.0 μM MnCl2, week 5
# [27] = DMY (no coal), 10 μM MnCl2, week 1
# [28] = DMY (no coal), 10 μM MnCl2, week 3
# [29] = DMY (no coal), 10 μM MnCl2, week 5
molecule,measurement,setting,value
"O=S([O-])[O-].[Na+].[Na+] [Na2SO3, sodium sulfite]",methane production (Average),[1],0.27
same,methane production (RepA-Rep D),[1],0.26 and 0.24 and 0.25 and 0.32
same,methane production (Average),[2],1.02
same,methane production (RepA-Rep D),[2],1.04 and 0.97 and 0.99 and 1.06
same,methane production (Average),[3],1.25
same,methane production (RepA-Rep D),[3],1.21 and 1.22 and 1.25 and 1.31
same,methane production (Average),[4],20
same,methane production (RepA-Rep D),[4],0.23 and 0.18 and 0.19 and 0.20
same,methane production (Average),[5],1.07
same,methane production (RepA-Rep D),[5],1.04 and 1.02 and 1.06 and 1.18
same,methane production (Average),[6],1.42
same,methane production (RepA-Rep D),[6],1.26 and 1.24 and 1.45 and 1.74
same,methane production (Average),[7],0.14
same,methane production (RepA-Rep D),[7],0.14 and 0.13 and 0.15
same,methane production (Average),[8],1.04
same,methane production (RepA-Rep D),[8],1.01 and 0.98 and 1.07 and 1.04
same,methane production (Average),[9],1.35
same,methane production (RepA-Rep D),[9],1.34 and 1.26 and 1.37 and 1.41
same,methane production (Average),[10],0.21
same,methane production (RepA-Rep D),[10],0.20 and 0.21 and 0.22
same,methane production (Average),[11],0.71
same,methane production (RepA-Rep D),[11],0.71 and 0.68 and 0.69 and 0.75
same,methane production (Average),[12],0.68
same,methane production (RepA-Rep D),[12],0.66 and 0.69 and 0.71
same,methane production (Average),[13],0.14
same,methane production (RepA-Rep D),[13],0.14 and 0.15 and 0.13
same,methane production (Average),[14],0.67
same,methane production (RepA-Rep D),[14],0.67 and 0.63 and 0.65 and 0.72
same,methane production (Average),[15],0.62
same,methane production (RepA-Rep D),[15],0.62 and 0.59 and 0.65
same,methane production (Average),[16],0.09
same,methane production (RepA-Rep D),[16],0.09 and 0.08 and 0.10
same,methane production (Average),[17],0.68
same,methane production (RepA-Rep D),[17],0.71 and 0.64 and 0.74
same,methane production (Average),[18],0.74
same,methane production (RepA-Rep D),[18],0.83 and 0.68 and 0.76
manganese chloride [MnCl2],methane production (Average),"DMSCY (coal), 5.0 μM MnCl2, week 1",0.44
same,methane production (Average),[19],1.56
same,methane production (RepA-Rep D),[19],1.51 and 1.55 and 1.53 and 1.64
same,methane production (Average),[20],1.82
same,methane production (RepA-Rep D),[20],1.94 and 1.81 and 1.70 and 1.85
same,methane production (Average),[21],0.42
same,methane production (RepA-Rep D),[21],0.44 and 0.41 and 0.43
same,methane production (Average),[22],1.46
same,methane production (RepA-Rep D),[22],1.45 and 1.49 and 1.43 and 1.48
same,methane production (Average),[23],1.72
same,methane production (RepA-Rep D),[23],1.63 and 1.82 and 1.71 and 1.70
same,methane production (Average),[24],0.34
same,methane production (RepA-Rep D),[24],0.34 and 0.33 and 0.36
same,methane production (Average),[25],0.92
same,methane production (RepA-Rep D),[25],0.92 and 0.90 and 0.94
same,methane production (Average),[26],0.87
same,methane production (RepA-Rep D),[26],0.89 and 0.86 and 0.85 and 0.88
same,methane production (Average),[27],0.36
same,methane production (RepA-Rep D),[27],0.39 and 0.38 and 0.35
same,methane production (Average),[28],1.02
same,methane production (RepA-Rep D),[28],1.00 and 1.05 and 1.04 and 1.01
same,methane production (Average),[29],0.97
same,methane production (RepA-Rep D),[29],0.89 and 1.03 and 0.96 and 1.01
